From PubChem BioAssay AID1745844 (Carcinogenic Potency Database (CPDB), 2022)
Activity calls are given as the source filed them. The rule behind the calls is not given here.

Tested on: rodent lifetime carcinogenesis bioassay, tumor incidence TD50
Test: carcinogenic potency in animals, long-term in vivo studies, CPDB compilation (AID 1745844)

CCCC(Cl)CCCC(Cl)CCC(Cl)CCC(Cl)CCC(Cl)CCCC(Cl)CCC (stereo not given)
TD50 (mouse, strain B6C3F1, females, by gavage, site: Harderian gland, lesion: adenoma, NOS, dosed 103 weeks, study length 104 weeks): 347 mg/kg/day | TD50 (mouse, strain B6C3F1, females, by gavage, site: liver + thyroid gland, lesion: hepatocellular adenoma + hepatocellular carcinoma + follicular-cell adenoma + follicular-cell carcinoma, dosed 103 weeks, study length 104 weeks): 86.8 mg/kg/day | TD50 (mouse, strain B6C3F1, females, by gavage, site: lung, lesion: alveolar/bronchiolar adenoma + alveolar/bronchiolar carcinoma, dosed 103 weeks, study length 104 weeks): 1.22e+06 mg/kg/day | TD50 (mouse, strain B6C3F1, females, by gavage, site: multiple organs, lesion: malignant lymphoma, lymphocytic type, dosed 103 weeks, study length 104 weeks): 599 mg/kg/day | TD50 (mouse, strain B6C3F1, females, by gavage, site: thyroid gland, lesion: follicular-cell adenoma + follicular-cell carcinoma, dosed 103 weeks, study length 104 weeks): 307 mg/kg/day | TD50 (mouse, strain B6C3F1, females, by gavage, site: thyroid gland, lesion: follicular-cell adenoma, dosed 103 weeks, study length 104 weeks): 372 mg/kg/day | TD50 (mouse, strain B6C3F1, males, by gavage, site: liver + mesenteric lymph node + multiple organs + small intestine + spleen, lesion: malignant lymphoma, NOS + malignant lymphoma, mixed type + malignant lymphoma, lymphocytic type + malignant lymphoma, histiocy, dosed 103 weeks, study length 104 weeks): 6540 mg/kg/day | TD50 (mouse, strain B6C3F1, males, by gavage, site: liver, lesion: hepatocellular adenoma + hepatocellular carcinoma, dosed 103 weeks, study length 104 weeks): 143 mg/kg/day | TD50 (mouse, strain B6C3F1, males, by gavage, site: liver, lesion: hepatocellular adenoma, dosed 103 weeks, study length 104 weeks): 157 mg/kg/day | TD50 (mouse, strain B6C3F1, males, by gavage, site: lung, lesion: alveolar/bronchiolar carcinoma, dosed 103 weeks, study length 104 weeks): 606 mg/kg/day | TD50 (mouse, strain B6C3F1, males, by gavage, site: mesenteric lymph node + multiple organs + small intestine + spleen, lesion: malignant lymphoma, mixed type, dosed 103 weeks, study length 104 weeks): 12100 mg/kg/day | TD50 (mouse, strain B6C3F1, males, by gavage, site: mesenteric lymph node + multiple organs, lesion: malignant lymphoma, lymphocytic type, dosed 103 weeks, study length 104 weeks): 22900 mg/kg/day | TD50 (mouse, strain B6C3F1, males, by gavage, site: multiple organs, lesion: malignant lymphoma, histiocytic type, dosed 103 weeks, study length 104 weeks): 43200 mg/kg/day | TD50 (mouse, strain B6C3F1, males, by gavage, site: thyroid gland, lesion: follicular-cell carcinoma, dosed 103 weeks, study length 104 weeks): 44000 mg/kg/day | TD50 (rat, strain Fischer 344, females, by gavage, site: adrenal medulla, lesion: pheochromocytoma + pheochromocytoma, malignant, dosed 103 weeks, study length 105 weeks): 2350 mg/kg/day | TD50 (rat, strain Fischer 344, females, by gavage, site: any site (literature study), lesion: several types, types named in the paper, dosed 104 weeks, study length 105 weeks): 1100 mg/kg/day | TD50 (rat, strain Fischer 344, females, by gavage, site: liver + thyroid gland, lesion: hepatocellular carcinoma + neoplastic nodule + follicular-cell adenoma + follicular-cell carcinoma, dosed 104 weeks, study length 105 weeks): 583 mg/kg/day | TD50 (rat, strain Fischer 344, females, by gavage, site: liver, lesion: hepatocellular adenoma + hepatocellular carcinoma + neoplastic nodule, dosed 103 weeks, study length 105 weeks): 24800 mg/kg/day | TD50 (rat, strain Fischer 344, females, by gavage, site: liver, lesion: hepatocellular adenoma + hepatocellular carcinoma + neoplastic nodule, dosed 104 weeks, study length 105 weeks): 1140 mg/kg/day | TD50 (rat, strain Fischer 344, females, by gavage, site: liver, lesion: hepatocellular carcinoma + neoplastic nodule, dosed 104 weeks, study length 105 weeks): 1140 mg/kg/day | TD50 (rat, strain Fischer 344, females, by gavage, site: liver, lesion: neoplastic nodule, dosed 104 weeks, study length 105 weeks): 1200 mg/kg/day | TD50 (rat, strain Fischer 344, females, by gavage, site: multiple organs, lesion: mononuclear-cell leukemia, dosed 104 weeks, study length 105 weeks): 345 mg/kg/day | TD50 (rat, strain Fischer 344, females, by gavage, site: pancreas, lesion: acinar-cell adenoma, dosed 104 weeks, study length 105 weeks): 839 mg/kg/day | TD50 (rat, strain Fischer 344, females, by gavage, site: thyroid gland, lesion: follicular-cell adenoma + follicular-cell carcinoma, dosed 104 weeks, study length 105 weeks): 1160 mg/kg/day | TD50 (rat, strain Fischer 344, females, by gavage, site: thyroid gland, lesion: follicular-cell adenoma, dosed 104 weeks, study length 105 weeks): 736 mg/kg/day | TD50 (rat, strain Fischer 344, females, by gavage, site: thyroid gland, lesion: follicular-cell carcinoma, dosed 104 weeks, study length 105 weeks): 4060 mg/kg/day | TD50 (rat, strain Fischer 344, females, by gavage, site: uterus, lesion: endometrial stromal polyp + endometrial stromal sarcoma, dosed 104 weeks, study length 105 weeks): 394 mg/kg/day | TD50 (rat, strain Fischer 344, males, by gavage, site: adrenal gland, lesion: pheochromocytoma + pheochromocytoma, malignant, dosed 104 weeks, study length 105 weeks): 192 mg/kg/day | TD50 (rat, strain Fischer 344, males, by gavage, site: any site (literature study), lesion: several types, types named in the paper, dosed 104 weeks, study length 105 weeks): 75.7 mg/kg/day | TD50 (rat, strain Fischer 344, males, by gavage, site: kidney + liver, lesion: tubular-cell adenoma + tubular-cell adenocarcinoma + hepatocellular carcinoma + neoplastic nodule, dosed 104 weeks, study length 105 weeks): 110 mg/kg/day | TD50 (rat, strain Fischer 344, males, by gavage, site: kidney, lesion: tubular-cell adenoma + tubular-cell adenocarcinoma, dosed 104 weeks, study length 105 weeks): 196 mg/kg/day | TD50 (rat, strain Fischer 344, males, by gavage, site: kidney, lesion: tubular-cell adenoma, dosed 104 weeks, study length 105 weeks): 417 mg/kg/day | TD50 (rat, strain Fischer 344, males, by gavage, site: liver, lesion: hepatocellular adenoma + hepatocellular carcinoma + neoplastic nodule, dosed 103 weeks, study length 105 weeks): 14500 mg/kg/day | TD50 (rat, strain Fischer 344, males, by gavage, site: liver, lesion: hepatocellular adenoma + hepatocellular carcinoma + neoplastic nodule, dosed 104 weeks, study length 105 weeks): 123 mg/kg/day | TD50 (rat, strain Fischer 344, males, by gavage, site: liver, lesion: hepatocellular carcinoma + neoplastic nodule, dosed 104 weeks, study length 105 weeks): 123 mg/kg/day | TD50 (rat, strain Fischer 344, males, by gavage, site: liver, lesion: hepatocellular carcinoma, dosed 104 weeks, study length 105 weeks): 551 mg/kg/day | TD50 (rat, strain Fischer 344, males, by gavage, site: liver, lesion: neoplastic nodule, dosed 103 weeks, study length 105 weeks): 14500 mg/kg/day (inactive) | TD50 (rat, strain Fischer 344, males, by gavage, site: liver, lesion: neoplastic nodule, dosed 104 weeks, study length 105 weeks): 173 mg/kg/day | TD50 (rat, strain Fischer 344, males, by gavage, site: mammary gland, lesion: fibroadenoma, dosed 104 weeks, study length 105 weeks): 566 mg/kg/day | TD50 (rat, strain Fischer 344, males, by gavage, site: multiple organs + spleen, lesion: mononuclear-cell leukemia, dosed 104 weeks, study length 105 weeks): 406 mg/kg/day | TD50 (rat, strain Fischer 344, males, by gavage, site: pancreas, lesion: acinar-cell adenoma, dosed 104 weeks, study length 105 weeks): 150 mg/kg/day | TD50 (rat, strain Fischer 344, males, by gavage, site: pancreas, lesion: acinar-cell carcinoma + acinar-cell adenoma, dosed 104 weeks, study length 105 weeks): 144 mg/kg/day | TD50 (rat, strain Fischer 344, males, by gavage, site: pancreatic islets, lesion: islet-cell adenoma, dosed 103 weeks, study length 105 weeks): 17600 mg/kg/day | TD50 (rat, strain Fischer 344, males, by gavage, site: preputial gland, lesion: adenoma, NOS + carcinoma, NOS, dosed 104 weeks, study length 105 weeks): 522 mg/kg/day | TD50 (rat, strain Fischer 344, males, by gavage, site: preputial gland, lesion: adenoma, NOS, dosed 104 weeks, study length 105 weeks): 568 mg/kg/day | TD50 (rat, strain Fischer 344, males, by gavage, site: skin + subcutaneous tissue, lesion: fibroma, dosed 104 weeks, study length 105 weeks): 332 mg/kg/day | TD50 (rat, strain Fischer 344, males, by gavage, site: testis, lesion: interstitial-cell tumor, dosed 104 weeks, study length 105 weeks): 75.2 mg/kg/day

NC(=S)NNC=O
TD50 (rat, strain Sprague-Dawley, females, in feed, site: any site (literature study), lesion: several types, types named in the paper, dosed 46 weeks, study length 64 weeks): 140 mg/kg/day (inactive)

CCN(CC)C(=S)S[Te](SC(=S)N(CC)CC)(SC(=S)N(CC)CC)SC(=S)N(CC)CC
TD50 (mouse, strain B6AKF1, females, oral dosing, site: any site (literature study), lesion: several types, types named in the paper, dosed 76 weeks, study length 76 weeks): 26.7 mg/kg/day | TD50 (mouse, strain B6AKF1, females, oral dosing, site: lung, lesion: adenoma, dosed 76 weeks, study length 76 weeks): 28.2 mg/kg/day | TD50 (mouse, strain B6AKF1, males, oral dosing, site: any site (literature study), lesion: several types, types named in the paper, dosed 76 weeks, study length 76 weeks): 31.2 mg/kg/day | TD50 (mouse, strain B6AKF1, males, oral dosing, site: liver, lesion: hepatoma, dosed 76 weeks, study length 76 weeks): 55.5 mg/kg/day | TD50 (mouse, strain B6C3F1, females, in feed, site: any site (literature study), lesion: several types, types named in the paper, dosed 106 weeks, study length 106 weeks): 1030 mg/kg/day (inactive) | TD50 (mouse, strain B6C3F1, females, in feed, site: liver, lesion: hepatocellular adenoma + hepatocellular carcinoma + neoplastic nodule, dosed 106 weeks, study length 106 weeks): 2270 mg/kg/day | TD50 (mouse, strain B6C3F1, females, in feed, site: lung, lesion: alveolar/bronchiolar adenoma + alveolar/bronchiolar carcinoma, dosed 106 weeks, study length 106 weeks): 3400 mg/kg/day | TD50 (mouse, strain B6C3F1, females, oral dosing, site: any site (literature study), lesion: several types, types named in the paper, dosed 76 weeks, study length 76 weeks): 63.5 mg/kg/day | TD50 (mouse, strain B6C3F1, females, oral dosing, site: lung, lesion: adenoma, dosed 76 weeks, study length 76 weeks): 131 mg/kg/day | TD50 (mouse, strain B6C3F1, males, in feed, site: any site (literature study), lesion: several types, types named in the paper, dosed 106 weeks, study length 106 weeks): 902 mg/kg/day | TD50 (mouse, strain B6C3F1, males, in feed, site: eye, lesion: adenoma, NOS, dosed 106 weeks, study length 106 weeks): 201 mg/kg/day | TD50 (mouse, strain B6C3F1, males, in feed, site: lung, lesion: alveolar/bronchiolar adenoma + alveolar/bronchiolar carcinoma, dosed 106 weeks, study length 106 weeks): 228 mg/kg/day | TD50 (mouse, strain B6C3F1, males, in feed, site: lung, lesion: alveolar/bronchiolar carcinoma, dosed 106 weeks, study length 106 weeks): 260 mg/kg/day | TD50 (mouse, strain B6C3F1, males, oral dosing, site: any site (literature study), lesion: several types, types named in the paper, dosed 76 weeks, study length 76 weeks): 8.41 mg/kg/day | TD50 (mouse, strain B6C3F1, males, oral dosing, site: liver, lesion: hepatoma, dosed 76 weeks, study length 76 weeks): 24.2 mg/kg/day | TD50 (mouse, strain B6C3F1, males, oral dosing, site: lung, lesion: adenoma, dosed 76 weeks, study length 76 weeks): 108 mg/kg/day | TD50 (mouse, strain B6C3F1, males, oral dosing, site: lung, lesion: carcinoma, dosed 76 weeks, study length 76 weeks): 108 mg/kg/day | TD50 (mouse, strain B6C3F1, males, oral dosing, site: lung, lesion: several types, types named in the paper, dosed 76 weeks, study length 76 weeks): 52.1 mg/kg/day | TD50 (rat, strain Fischer 344, females, in feed, site: liver, lesion: hepatocellular adenoma + hepatocellular carcinoma + neoplastic nodule, dosed 105 weeks, study length 105 weeks): 650 mg/kg/day | TD50 (rat, strain Fischer 344, females, in feed, site: pituitary gland, lesion: adenoma, NOS, dosed 105 weeks, study length 105 weeks): 12.3 mg/kg/day (inactive) | TD50 (rat, strain Fischer 344, males, in feed, site: all sites, lesion: mesothelioma, NOS, dosed 105 weeks, study length 105 weeks): 77.6 mg/kg/day | TD50 (rat, strain Fischer 344, males, in feed, site: body cavities, lesion: mesothelioma, NOS, dosed 105 weeks, study length 105 weeks): 181 mg/kg/day
